The target of this assay is T1, CCK-1 receptor (Homo sapiens, UniProt P32238).
T1 construct: expressed in transfected cells; membranes
T1 sequence (P32238 1-428): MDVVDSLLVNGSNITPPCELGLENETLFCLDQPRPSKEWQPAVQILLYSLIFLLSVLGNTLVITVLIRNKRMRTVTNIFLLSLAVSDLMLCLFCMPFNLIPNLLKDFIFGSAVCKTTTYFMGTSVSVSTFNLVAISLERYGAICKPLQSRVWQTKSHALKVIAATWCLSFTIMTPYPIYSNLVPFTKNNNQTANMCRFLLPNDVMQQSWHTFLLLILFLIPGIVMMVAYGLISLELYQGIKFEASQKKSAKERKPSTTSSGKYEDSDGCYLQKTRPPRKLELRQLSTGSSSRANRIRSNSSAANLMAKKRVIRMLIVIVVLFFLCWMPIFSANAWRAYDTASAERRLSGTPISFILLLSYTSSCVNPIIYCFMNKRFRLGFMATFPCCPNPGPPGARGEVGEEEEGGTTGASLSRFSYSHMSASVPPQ
The assay is described as follows: CCK-1 receptor radioligand binding assay ([125I]-BH-CCK-8S displacement, membranes of stably transfected CHO-K1 cells). Particulars: membranes of CHO-K1 cells stably transfected with CCK-1 receptor, 0.3 μM PD-134,308 present. How it is done:
CHO-K1 cells that had undergone-stable transfection with the CCK-1 receptor were grown in DMEM supplemented with L-glutamine (2 mM), penicillin (50 units/mL) and streptomycin (50 μg/mL). Cells were cultured under continuous G418 selection (2 mM) and were harvested using a rubber cell scraper. CHO-K1 cells were sub-cultured a maximum of ten times before being reseeded from the original stocks.
Membranes were prepared from the stably transfected CHO-K1 cells. Frozen cell pellets (−40° C.) were thawed in 14 mL of buffer A (10 mM HEPES, 130 mM NaCl, 4.7 mM KCl, 5 mM MgCl, 1 mM EGTA and 15.4 mg/100 mL bacitracin at pH 7.2), adapted from Harper et al. (Br. J. Pharmacol. (1996) 118, pp 1717-1726). The thawed pellets were homogenized using a Polytron PT-10 (7×1 s). The homogenates were centrifuged for 5 min at 1500 rpm (600×g), and the resulting pellets were discarded. The supernatants were re-centrifuged in order to collect the receptor-membrane pellets (25 min 15,000 rpm; 39,800×g), which were re-suspended in buffer A.
All assays were conducted in 96-well plates (GF/B millipore filter plates) using buffer A, with 0.3 μM PD-134,308, for the dilutions. The CCK-2 receptor ligand was included to eliminate the contribution of this receptor subtype to the binding. For the optimal cell number determination experiments 20 pM [1251]-BH—CCK-8S (50 μL 60 pM solution) was incubated with a range of cell concentrations (2.5×105 to 12.5×10^5 cells/well) in a total volume of 150 μL. Total binding of [1251]-BH—CCK-8S was determined in the presence of 15 μL of buffer A. Non-specific binding of [1 251]-BH—CCK-8S was determined in the presence of 15 μL of 100 μM 2-naphthalenesulphonyl L-aspartyl-(2-phenethyl)amide (2-NAP: see R. A. Hull et al., Br. J. Pharmacol. (1993) 108, pp 734-740), a CCK-1 receptor selective antagonist that is structurally unrelated to the radioligand [1251]-BH—CCK-8S. The assay preparation was incubated for 1 h at 21±3° C., and then the assay was terminated upon rapid filtration of the preparation under reduced pressure. The loaded filters were washed three times using undiluted PBS (100 μL), and then the residues were transferred to 5 mL scintillation tubes. Bound radioactivity was determined using a gamma counter (count time=1 min). From these experiments a cell concentration of 1 pellet in 40 mL of buffer (2.5×10^6 cells/mL) was chosen for use in other assays (below). To validate the radioligand concentration and incubation time for the assay, saturation and kinetic binding studies were also conducted (see M. F. Morton, The Pharmacological Characterization of Cholecystokinin Receptors in the Human Gastrointestinal Tract. PhD Thesis, University of London, 2000). The affinity of novel compounds was estimated by incubating membrane preparations with 15 μL of competing ligand (0.1 pM-1 mM) for 60 min at 21±3° C. The assay was then terminated according to the procedure outlined above.
The pKi values were determined using the equation of Cheng and Prusoff (Biochem. Pharmacol. (1973) 22, pp 3099-3108): [formula]
To circumvent problems associated with computer-assisted data analysis of compounds with low affinity, the data obtained in the current study were weighted according to a method described by Morton (2000). In brief, 100% and 0% specific binding were defined independently using total binding and binding obtained in the presence of a high concentration of the reference antagonist, 2-NAP.
On to `COc1ccc(-n2nc(C[C@H](C(=O)O)c3cccc(C)c3)cc2-c2ccc(Cl)c(Cl)c2)cc1` [Example 1], for which the affinity, expressed as Ki, was 10 nM.

For the compound `COc1ccc(-n2nc(C[C@@H](C(=O)O)c3cccc(C)c3)cc2-c2ccc(Cl)c(Cl)c2)cc1` [Example 3], the Ki was 251 nM.

With `COc1ccc(-n2nc(CC(C(=O)O)c3cccc(Cl)c3)cc2-c2ccc(C)cc2)cc1` (stereo not drawn) [Example 7], affinity was put at a Ki of 7.94 nM.

`COc1ccc(-n2nc(CC(C(=O)O)c3cccc(F)c3F)cc2-c2ccc(Cl)c(Cl)c2)cc1` (stereo not drawn) [Example 18]: the Ki is 39.8 nM.

In turn, `COc1ccc(-n2nc(CC(C(=O)O)c3ccccc3C(F)(F)F)cc2-c2ccc(Cl)c(Cl)c2)cc1` (stereo not drawn) [Example 19] gave a Ki of 31.6 nM.

Consider `Cc1ccc(-c2cc(CC(C(=O)O)c3cccc(C(F)(F)F)c3F)nn2-c2ccc(Cl)c(Cl)c2)cc1` (stereo not drawn) [Example 21], for which the affinity corresponds to a Ki of 158 nM.

Regarding `Cc1ccc(-c2cc(CC(C(=O)O)c3cccc(I)c3)nn2-c2ccc(Cl)c(Cl)c2)cc1` (stereo not drawn) [Example 24], the Ki was 20 nM.

Take `Cc1ccc(-c2cc(CC(C(=O)O)c3cccc(SC(F)(F)F)c3)nn2-c2ccc(Cl)c(Cl)c2)cc1` (stereo not drawn) [Example 26]: the Ki was 79.4 nM.

The compound `COc1ccc(-n2nc(C[C@@H](C(=O)O)c3cccc4ccccc34)cc2-c2ccc3c(c2)OCO3)cc1` [Example 28] gave an inhibition constant Ki of 1260 nM.

As for `COc1ccc(-n2nc(C[C@H](C(=O)O)c3cccc4ccccc34)cc2-c2ccc3c(c2)OCO3)cc1` [Example 29], affinity was put at a Ki of 39.8 nM.

In turn, `COc1ccc(-c2cc(C[C@@H](C(=O)O)c3cccc(OC)c3)nn2-c2ccc(OC)cc2)cc1` [Example 31] gave a Ki of 1000 nM.

As for `COc1ccc(-c2cc(C[C@H](C(=O)O)c3cccc(OC)c3)nn2-c2ccc(OC)cc2)cc1` [Example 32], affinity was put at a Ki of 63.1 nM.

`COc1ccc(-n2nc(CC(C(=O)O)c3cccc(Cl)c3)cc2-c2ccc(Cl)cc2)cc1` (stereo not drawn) [Example 37]: the Ki is 20 nM.

Consider `Cc1ccc(-c2cc(CC(C(=O)O)c3cccc(C)c3)nn2-c2ccc(C)cc2)cc1` (stereo not drawn) [Example 40], for which the Ki is 7.94 nM.

In turn, `COc1cccc(C(Cc2cc(-c3ccc(C)cc3)n(-c3ccc(Cl)c(Cl)c3)n2)C(=O)O)c1` (stereo not drawn) [Example 42] showed a Ki of 6.31 nM.

The compound `Cc1ccc(-c2cc(CC(C(=O)O)c3ccccc3Cl)nn2Cc2ccccc2)cc1` (stereo not drawn) [Example 43] had a Ki of 100 nM.

In the case of `Cc1ccc(-c2cc(CC(C(=O)O)c3cccc(Cl)c3Cl)nn2-c2ccc(Cl)c(Cl)c2)cc1` (stereo not drawn) [Example 46], the Ki was 20 nM.

`Cc1cccc(C(Cc2cc(-c3ccc4ccccc4c3)[nH]n2)C(=O)O)c1` (stereo not drawn) [Example 47] showed a Ki of 200 nM.

`Cc1cccc(C(Cc2cc(-c3ccc(Cl)c(Cl)c3)nn2C)C(=O)O)c1` (stereo not drawn) [Example 48]: the inhibitory constant (Ki) is 79.4 nM.

The compound `Cc1cccc(C(Cc2cc(-c3ccc4ccccc4c3)nn2C2CCCCC2)C(=O)O)c1` (stereo not drawn) [Example 50] showed a Ki of 100 nM.

As to `Cc1cccc(C(Cc2cc(-c3ccc4ccccc4c3)n(C3CCCCC3)n2)C(=O)O)c1` (stereo not drawn) [Example 51], the affinity, expressed as Ki, was 5.01 nM.

`Cc1cccc(C(Cc2cc(-c3ccc4ccccc4c3)n(-c3ccccn3)n2)C(=O)O)c1` (stereo not drawn) [Example 52] showed a Ki of 10 nM.

`Cc1cccc(C(Cc2cc(-c3ccc(Cl)c(Cl)c3)n(-c3ccc(S(C)(=O)=O)cc3)n2)C(=O)O)c1` (stereo not drawn) [Example 54] gave a Ki of 39.8 nM.

On to `Cc1cccc(C(Cc2cc(-c3cccnc3)n(-c3ccc(Cl)cc3Cl)n2)C(=O)O)c1` (stereo not drawn) [Example 56], for which the Ki is 50.1 nM.

In turn, `Cc1cccc(C(Cc2cc(-c3ccc(OCc4ccccc4)cc3)n(-c3ccc(OC(F)(F)F)cc3)n2)C(=O)O)c1` (stereo not drawn) [Example 58] showed a Ki of 501 nM.

Compound `Cc1ccc(-n2nc(CC(C(=O)O)c3cccc(C)c3)cc2-c2ccc(N(C)C)cc2)cc1` (stereo not drawn) [Example 59] had a Ki of 3.16 nM.

The compound `COc1cc(-c2cc(CC(C(=O)O)c3cccc(C)c3)nn2-c2ccc(C)cc2)ccc1C` (stereo not drawn) [Example 60] showed a Ki of 5.01 nM.

Turning to `COc1ccc(-n2nc(CC(C(=O)NC3CCCCC3O)c3cccc(C)c3)cc2-c2ccc(C)cc2)cc1` (stereo not drawn) [Example 64], the Ki was 50.1 nM.

`COc1ccc(-n2nc(CC(C(N)=O)c3cccc(C)c3)cc2-c2ccc(C)cc2)cc1` (stereo not drawn) [Example 65] had a Ki of 2000 nM.

`COc1ccc(-n2nc(CC(C(=O)N(C)C)c3cccc(C)c3)cc2-c2ccc(C)cc2)cc1` (stereo not drawn) [Example 66] had a Ki of 20 nM.

On to `COc1ccc(-n2nc(CC(C(=O)N3CCN(C)CC3)c3cccc(C)c3)cc2-c2ccc(C)cc2)cc1` (stereo not drawn) [Example 68], for which the affinity, expressed as Ki, was 251 nM.

`COc1ccc(-n2nc(CC(C(=O)O)c3c[nH]c4ccccc34)cc2-c2ccc(C)cc2)cc1` (stereo not drawn) [Example 71] showed a Ki of 25.1 nM.

Regarding `COc1ccc(-n2nc(CC(C(=O)O)c3cn(C)c4ccccc34)cc2-c2ccc(C)cc2)cc1` (stereo not drawn) [Example 72], the Ki is 50.1 nM.

Consider `COc1ccc(-n2nc(CC(c3cccc(C)c3)c3nnn[nH]3)cc2-c2ccc(C)cc2)cc1` (stereo not drawn) [Example 74], for which the affinity, expressed as Ki, was 6.31 nM.

`COc1ccc(-n2nc(/C=C(/C(=O)O)c3cccc(C)c3)cc2-c2ccc(Cl)c(Cl)c2)cc1` [Example 75]: affinity was put at a Ki of 79.4 nM.

Consider `Cc1ccc(-n2nc(CC(C(=O)O)c3cccc(C)c3)cc2-c2ccc(Br)cc2)cc1` (stereo not drawn) [Example 77], for which affinity was put at a Ki of 15.8 nM.

For the compound `Cc1cccc(C(Cc2cc(-c3cccc4ccccc34)nn2-c2ccccn2)C(=O)O)c1` (stereo not drawn) [Example 79], the Ki is 126 nM.

The compound `Cc1cccc(C(Cc2cc(-c3ccc4ccccc4c3)n(-c3ccc(C(F)(F)F)cn3)n2)C(=O)O)c1` (stereo not drawn) [Example 80] had a Ki of 12.6 nM.

The compound `Cc1cccc(C(Cc2cc(-c3ccc4c(c3)OCO4)nn2CC2CCCCC2)C(=O)O)c1` (stereo not drawn) [Example 82] showed an inhibitory constant (Ki) of 1260 nM.

In turn, `Cc1cccc(C(Cc2cc(-c3ccc4ccccc4c3)nn2Cc2ccccc2)C(=O)O)c1` (stereo not drawn) [Example 83] showed a Ki of 63.1 nM.

As to `Cc1ccc(-n2nc(CC(C(=O)O)c3cccc(C)c3)cc2-c2ccc(N(C)C)cc2)cc1` (stereo not drawn) [Example 86], affinity was put at a Ki of 3.98 nM.

Compound `Cc1ccc(-n2nc(CC(C(=O)O)c3cccc(C)c3)cc2-c2ccc3c(c2)CCN3C)cc1` (stereo not drawn) [Example 87] gave a Ki of 25.1 nM.

`Cc1cccc(C(Cc2cc(-c3ccc4ccccc4c3)nn2Cc2ccncc2)C(=O)O)c1` (stereo not drawn) [Example 88] showed a Ki of 39.8 nM.

As to `Cc1ccc(-n2nc(-c3cccc(N(C)C)c3)cc2CC(C(=O)O)c2cccc(C)c2)cc1` (stereo not drawn) [Example 90], the Ki is 794 nM.

`Cc1ccc(-n2nc(CC(C(=O)O)c3cccc(C)c3)cc2-c2cccc(N(C)C)c2)cc1` (stereo not drawn) [Example 91] gave a Ki of 12.6 nM.

In turn, `Cc1cccc([C@H](Cc2cc(-c3ccc4ccccc4c3)n(-c3ccccn3)n2)C(=O)O)c1` [Example 92] had a Ki of 6.31 nM.

Compound `Cc1cccc([C@@H](Cc2cc(-c3ccc4ccccc4c3)n(-c3ccccn3)n2)C(=O)O)c1` [Example 93] gave a Ki of 251 nM.

Compound `Cc1ccc(-n2nc(CC(C(=O)O)c3cccc(C)c3)cc2-c2ccc(N(C)C(C)C)cc2)cc1` (stereo not drawn) [Example 101] showed a Ki of 15.8 nM.

For orientation: Ki means a measure of affinity in units of concentration, obtained from inhibition or displacement. Low values mean higher affinity, high ones lower affinity.
